CCCCOc1ccc(C(=O)CCN2CCCCC2)cc1.Cl
solubility (mole fraction)
Conditions	278.15 K	283.15 K	288.15 K	293.15 K	298.15 K	303.15 K	308.15 K	313.15 K	318.15 K	323.15 K
in DMF	0.0201	0.0227	0.0256	0.0291	0.0328	0.0371	0.0421	0.0475	0.0539	0.0608
in THF	0.00088	0.00098	0.00108	0.00119	0.00133	0.00147	0.00162	0.0018	0.002	0.00221
in acetone	0.0121	0.0148	0.018	0.0218	0.0263	0.0321	0.0389	0.0474	0.0574	0.0695
in ethanol	0.062	0.07	0.0786	0.0882	0.0987	0.111	0.124	0.14	0.157	0.175
in ethyl acetate	0.00638	0.00791	0.00983	0.012	0.0146	0.0181	0.0223	0.0276	0.0338	0.0415
in methanol	0.0804	0.0905	0.103	0.116	0.131	0.147	0.166	0.188	0.212	0.238
in n-hexane	0.00084	0.00095	0.00108	0.00122	0.00137	0.00155	0.00175	0.00198	0.00224	0.00253
in water	0.0296	0.0339	0.039	0.045	0.0514	0.059	0.0674	0.0774	0.0888	0.102
